The values below come from PMC4307180, “Overcoming myelosuppression due to synthetic lethal toxicity for FLT3-targeted acute myeloid leukemia therapy” (eLife, 2014).

One assay relates to HMC1.1 cells (KIT V560G). As to conditions: proliferation, Figure 2A and reference values; ref de Jong and Zon, 2005; Guo et al., 2007; Kampa-Shittenhelm et al., 2013; cited from earlier work.
A further assay addresses T1, purified FLT3 WT (Homo sapiens, UniProt P36888).
T1 sequence (P36888 27-993): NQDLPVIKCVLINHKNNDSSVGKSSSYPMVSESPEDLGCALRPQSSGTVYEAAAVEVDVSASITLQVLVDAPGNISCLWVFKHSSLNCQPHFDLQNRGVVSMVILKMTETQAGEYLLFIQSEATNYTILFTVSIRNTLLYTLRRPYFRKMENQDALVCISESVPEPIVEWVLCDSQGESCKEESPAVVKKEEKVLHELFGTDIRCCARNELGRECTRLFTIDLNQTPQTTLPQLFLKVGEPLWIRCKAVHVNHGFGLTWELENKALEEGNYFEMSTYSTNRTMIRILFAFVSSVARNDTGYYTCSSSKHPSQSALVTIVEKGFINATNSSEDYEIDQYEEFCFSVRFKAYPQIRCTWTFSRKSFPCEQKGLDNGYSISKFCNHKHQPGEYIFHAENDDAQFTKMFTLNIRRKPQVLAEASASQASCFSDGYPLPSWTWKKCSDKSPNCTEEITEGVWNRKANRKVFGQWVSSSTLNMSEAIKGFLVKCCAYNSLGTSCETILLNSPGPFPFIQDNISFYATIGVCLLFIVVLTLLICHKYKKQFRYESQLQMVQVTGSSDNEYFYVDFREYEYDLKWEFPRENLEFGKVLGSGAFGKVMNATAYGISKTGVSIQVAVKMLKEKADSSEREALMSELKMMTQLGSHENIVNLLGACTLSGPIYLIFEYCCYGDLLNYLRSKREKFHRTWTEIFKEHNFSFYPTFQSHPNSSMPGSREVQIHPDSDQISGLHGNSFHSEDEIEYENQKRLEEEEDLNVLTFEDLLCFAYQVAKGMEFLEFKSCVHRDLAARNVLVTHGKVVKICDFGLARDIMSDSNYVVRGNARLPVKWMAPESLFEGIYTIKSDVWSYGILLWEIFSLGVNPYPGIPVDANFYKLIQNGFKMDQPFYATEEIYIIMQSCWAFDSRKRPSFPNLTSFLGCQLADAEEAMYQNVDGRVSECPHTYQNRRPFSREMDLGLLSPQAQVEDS
The assay can be described thus: Radiolabeled purified kinase assay (Figure 1B).

The next assay concerns the target KIT (Homo sapiens, UniProt P10721). Put plainly: Reaction Biology Corp kinase assay at Km-ATP (Figure 1C), KIT.
Another assay addresses PDGFRα (Homo sapiens, UniProt P16234). Put plainly: Reaction Biology Corp kinase assay at Km-ATP (Figure 1C), PDGFRα.
A further assay concerns the target CSF1R (Homo sapiens, UniProt P07333). Put plainly: Reaction Biology Corp kinase assay at Km-ATP (Figure 1C), CSF1R.
The target in the next assay is T2, FLT3 (Homo sapiens, UniProt P36888).
T2 sequence (P36888 27-993): T1 sequence (P36888 27-993)
The assay can be described thus: Reaction Biology Corp kinase assay at Km-ATP (Figure 1C), FLT3.

Another assay deals with PDGFRβ (Homo sapiens, UniProt P09619). Put plainly: Reaction Biology Corp kinase assay at Km-ATP (Figure 1C), PDGFRβ.

Each structure is given as a SMILES string.

Sequence of KIT (P10721 26-976): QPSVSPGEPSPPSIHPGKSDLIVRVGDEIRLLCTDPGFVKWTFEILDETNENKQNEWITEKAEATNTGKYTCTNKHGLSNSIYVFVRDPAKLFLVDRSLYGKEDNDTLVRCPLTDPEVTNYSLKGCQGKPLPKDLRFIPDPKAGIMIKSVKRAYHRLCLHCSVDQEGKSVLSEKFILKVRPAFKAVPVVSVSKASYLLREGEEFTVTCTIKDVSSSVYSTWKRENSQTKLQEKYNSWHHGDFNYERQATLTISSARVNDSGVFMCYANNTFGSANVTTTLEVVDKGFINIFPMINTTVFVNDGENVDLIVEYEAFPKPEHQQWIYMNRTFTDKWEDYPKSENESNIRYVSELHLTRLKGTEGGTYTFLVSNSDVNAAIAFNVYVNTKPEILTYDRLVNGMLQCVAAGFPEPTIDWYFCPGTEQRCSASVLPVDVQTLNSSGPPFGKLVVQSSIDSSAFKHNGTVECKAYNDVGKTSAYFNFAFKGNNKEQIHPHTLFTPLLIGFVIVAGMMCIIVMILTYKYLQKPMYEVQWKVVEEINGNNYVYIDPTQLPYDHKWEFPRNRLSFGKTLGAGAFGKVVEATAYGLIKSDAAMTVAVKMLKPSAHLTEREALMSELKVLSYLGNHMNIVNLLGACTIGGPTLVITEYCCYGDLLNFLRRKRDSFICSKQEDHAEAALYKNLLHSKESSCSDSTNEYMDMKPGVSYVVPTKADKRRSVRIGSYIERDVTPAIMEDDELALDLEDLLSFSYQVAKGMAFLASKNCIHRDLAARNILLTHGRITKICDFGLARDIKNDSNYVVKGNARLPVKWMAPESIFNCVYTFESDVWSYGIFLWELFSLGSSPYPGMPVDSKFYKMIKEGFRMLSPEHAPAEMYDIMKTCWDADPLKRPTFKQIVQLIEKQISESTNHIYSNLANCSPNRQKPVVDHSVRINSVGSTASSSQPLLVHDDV
Sequence of CSF1R (P07333 20-972): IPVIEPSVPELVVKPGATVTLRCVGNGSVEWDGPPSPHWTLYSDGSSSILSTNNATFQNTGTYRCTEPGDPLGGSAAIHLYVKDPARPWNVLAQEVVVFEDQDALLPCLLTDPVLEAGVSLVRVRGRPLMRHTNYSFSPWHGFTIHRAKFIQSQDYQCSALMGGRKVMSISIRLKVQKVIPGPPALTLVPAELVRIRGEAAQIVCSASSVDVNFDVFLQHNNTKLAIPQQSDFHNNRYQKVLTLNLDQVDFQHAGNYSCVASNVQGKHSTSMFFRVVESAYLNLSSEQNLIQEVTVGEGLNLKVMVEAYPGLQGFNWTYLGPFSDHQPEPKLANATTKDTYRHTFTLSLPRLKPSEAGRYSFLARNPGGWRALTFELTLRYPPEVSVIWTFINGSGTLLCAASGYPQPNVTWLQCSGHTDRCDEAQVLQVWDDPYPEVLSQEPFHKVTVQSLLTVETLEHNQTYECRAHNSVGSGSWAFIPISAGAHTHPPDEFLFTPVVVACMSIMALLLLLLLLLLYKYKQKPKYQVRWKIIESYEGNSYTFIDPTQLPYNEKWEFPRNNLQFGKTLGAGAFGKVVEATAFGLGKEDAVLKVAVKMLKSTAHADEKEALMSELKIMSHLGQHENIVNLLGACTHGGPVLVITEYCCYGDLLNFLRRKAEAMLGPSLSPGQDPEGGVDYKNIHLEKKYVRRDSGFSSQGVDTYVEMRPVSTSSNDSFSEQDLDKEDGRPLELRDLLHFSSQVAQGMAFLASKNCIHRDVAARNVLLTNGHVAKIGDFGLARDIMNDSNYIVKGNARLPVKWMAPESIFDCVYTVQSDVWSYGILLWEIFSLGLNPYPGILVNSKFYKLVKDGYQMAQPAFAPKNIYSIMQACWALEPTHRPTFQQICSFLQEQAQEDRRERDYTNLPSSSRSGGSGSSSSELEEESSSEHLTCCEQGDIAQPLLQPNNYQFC
Sequence of PDGFRα (P16234 24-1089): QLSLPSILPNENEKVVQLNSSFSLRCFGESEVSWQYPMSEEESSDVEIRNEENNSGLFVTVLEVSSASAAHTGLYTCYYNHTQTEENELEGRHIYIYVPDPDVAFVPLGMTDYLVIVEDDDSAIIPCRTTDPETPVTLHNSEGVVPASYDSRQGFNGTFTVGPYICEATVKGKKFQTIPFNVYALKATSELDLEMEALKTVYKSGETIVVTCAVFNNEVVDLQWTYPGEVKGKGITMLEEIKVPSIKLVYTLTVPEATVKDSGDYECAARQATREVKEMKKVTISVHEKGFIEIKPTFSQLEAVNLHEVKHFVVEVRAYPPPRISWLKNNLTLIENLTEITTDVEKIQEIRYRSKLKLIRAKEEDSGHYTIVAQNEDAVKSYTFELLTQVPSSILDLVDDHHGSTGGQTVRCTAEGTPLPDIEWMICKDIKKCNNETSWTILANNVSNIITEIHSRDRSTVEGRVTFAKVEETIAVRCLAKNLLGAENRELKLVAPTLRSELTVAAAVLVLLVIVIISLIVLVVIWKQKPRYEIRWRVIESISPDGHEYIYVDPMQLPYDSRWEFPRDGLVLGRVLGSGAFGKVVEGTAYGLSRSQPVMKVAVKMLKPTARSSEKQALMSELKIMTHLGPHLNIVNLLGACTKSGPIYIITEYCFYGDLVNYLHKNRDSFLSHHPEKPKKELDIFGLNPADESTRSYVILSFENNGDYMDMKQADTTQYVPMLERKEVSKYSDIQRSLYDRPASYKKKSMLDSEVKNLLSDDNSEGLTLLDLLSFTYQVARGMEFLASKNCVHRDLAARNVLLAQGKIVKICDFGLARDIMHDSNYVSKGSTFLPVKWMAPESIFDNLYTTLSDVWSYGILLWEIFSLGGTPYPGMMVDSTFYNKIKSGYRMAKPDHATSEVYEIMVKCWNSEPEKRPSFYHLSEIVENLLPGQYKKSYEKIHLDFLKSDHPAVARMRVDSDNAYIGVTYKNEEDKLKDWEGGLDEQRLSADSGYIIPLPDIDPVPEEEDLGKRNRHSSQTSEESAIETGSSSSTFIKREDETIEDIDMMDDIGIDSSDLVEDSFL
Sequence of PDGFRβ (P09619 33-1106): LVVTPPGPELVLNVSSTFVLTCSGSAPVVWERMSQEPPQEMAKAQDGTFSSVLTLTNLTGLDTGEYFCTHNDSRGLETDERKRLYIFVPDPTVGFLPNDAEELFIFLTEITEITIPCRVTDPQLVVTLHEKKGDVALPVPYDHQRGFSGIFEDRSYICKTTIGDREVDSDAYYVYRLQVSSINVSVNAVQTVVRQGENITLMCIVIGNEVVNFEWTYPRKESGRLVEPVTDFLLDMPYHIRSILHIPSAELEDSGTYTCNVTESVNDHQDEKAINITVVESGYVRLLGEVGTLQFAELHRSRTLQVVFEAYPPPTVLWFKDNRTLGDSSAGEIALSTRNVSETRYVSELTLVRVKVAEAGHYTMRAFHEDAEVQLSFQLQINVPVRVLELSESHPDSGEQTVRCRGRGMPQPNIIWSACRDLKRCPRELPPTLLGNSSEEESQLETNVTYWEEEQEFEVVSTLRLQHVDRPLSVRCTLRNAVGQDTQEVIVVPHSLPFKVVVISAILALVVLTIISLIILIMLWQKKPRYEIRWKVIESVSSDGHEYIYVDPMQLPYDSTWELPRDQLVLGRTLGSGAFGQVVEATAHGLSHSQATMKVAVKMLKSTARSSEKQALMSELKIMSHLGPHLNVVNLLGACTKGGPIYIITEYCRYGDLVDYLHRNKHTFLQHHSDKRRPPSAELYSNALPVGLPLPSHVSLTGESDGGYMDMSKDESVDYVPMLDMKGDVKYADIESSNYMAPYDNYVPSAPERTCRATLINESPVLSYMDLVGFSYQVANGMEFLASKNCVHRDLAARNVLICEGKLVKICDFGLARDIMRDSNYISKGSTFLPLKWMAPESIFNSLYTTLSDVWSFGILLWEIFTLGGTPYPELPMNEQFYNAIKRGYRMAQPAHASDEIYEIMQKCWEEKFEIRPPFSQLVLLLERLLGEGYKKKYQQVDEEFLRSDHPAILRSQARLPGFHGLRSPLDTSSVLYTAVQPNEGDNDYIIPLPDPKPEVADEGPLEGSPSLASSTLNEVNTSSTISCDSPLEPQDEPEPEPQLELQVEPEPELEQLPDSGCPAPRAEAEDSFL

On to `Cc1ccc(C(=O)Nc2ccc(CN3CCN(C)CC3)c(C(F)(F)F)c2)cc1C#Cc1cnc2cccnn12` [Ponatinib], for which the “inhibition of FLT3- versus KIT-driven cell lines” value with HMC1.1 cells (KIT V560G) was “equipotent inhibition of FLT3 and KIT-driven cell lines”.
With `CNC(=O)c1cc(Oc2ccc(NC(=O)Nc3ccc(Cl)c(C(F)(F)F)c3)cc2)ccn1` [Sorafenib], the “inhibition of FLT3- versus KIT-driven cell lines” value with HMC1.1 cells (KIT V560G) was “equipotent inhibition of FLT3 and KIT-driven cell lines”.
One may read the IC50 as the concentration needed to halve the response being measured. Turning to `CC(C)C[C@@H]1NC(=O)c2c1c1c3ccccc3[nH]c1c1[nH]c3ccccc3c21` [Star 1], at purified FLT3 WT, the IC50 is > 10000 nM.
Consider `CCC[C@@H]1NC(=O)c2c1c1c3ccccc3[nH]c1c1[nH]c3ccccc3c21` [Star 3], for which the IC50 against purified FLT3 WT was > 10000 nM.
On to `CCCC[C@@H]1NC(=O)c2c1c1c3ccccc3[nH]c1c1[nH]c3ccccc3c21` [Star 4], for which the IC50 against purified FLT3 WT was > 10000 nM.
Molecule `CC(C)[C@@H]1NC(=O)c2c1c1c3ccccc3[nH]c1c1[nH]c3ccccc3c21` [Star 6] registered an IC50 against purified FLT3 WT of 2000 nM.
In the case of `CC(C)(C)[C@@H]1NC(=O)c2c1c1c3ccccc3[nH]c1c1[nH]c3ccccc3c21` [Star 7], the IC50 at purified FLT3 WT was > 10000 nM.
Molecule `CC[C@@H]1NC(=O)c2c1c1c3ccccc3[nH]c1c1[nH]c3ccccc3c21` [Star 8] yielded a concentration for half-maximal inhibition (IC50) against purified FLT3 WT of 2000 nM.
As to `C#CC[C@@H]1NC(=O)c2c1c1c3ccccc3[nH]c1c1[nH]c3ccccc3c21` [Star 9], the IC50 on purified FLT3 WT is > 10000 nM.
Regarding `C[C@@H]1NC(=O)c2c1c1c3ccccc3[nH]c1c1[nH]c3ccccc3c21` [Star 22], the IC50 on purified FLT3 WT worked out at 193 ± 28 nM.
As for `C[C@@H]1NC(=O)c2c1c1c3ccccc3n(CCCCN)c1c1[nH]c3ccccc3c21` [Star 23], the IC50 is 6550 nM against KIT; 2000 nM against PDGFRα; > 10000 nM at CSF1R; 10 ± 4 nM against purified FLT3 WT; 9 ± 1 nM on FLT3; 2800 nM against PDGFRβ. Also, on KIT (ratio of Figure 1C IC50s), the “KIT/FLT3 IC50 ratio” value stood at 728.
For the molecule `C[C@@H]1NC(=O)c2c1c1c3ccccc3[nH]c1c1c2c2ccccc2n1CCCN` [Star 27-iso], it took 15 ± 7 nM to reach half-maximal inhibition at purified FLT3 WT (IC50).
